According to patent publication US12358890B2, “Substituted tetrahydroisoquinoline derivative as a D1 positive allosteric modulator” (UCB Biopharma SRL, priority 2019, dated 2025):

How the values were obtained:
dopamine D1 receptor = molecular target: T1, dopamine D1 receptor (Homo sapiens, UniProt P21728); assay: cAMP HTRF potentiation assay (in the presence of EC20 dopamine); assay type: cell-based; conditions: for EC50: potentiation of cAMP levels with EC20 dopamine (1.1 nM), LMtk (Ltk-) mouse fibroblast cells expressing the dopamine D1 receptor; for Emax: with EC20 dopamine, dopamine maximum = 100%, read-out: Erel (relative efficacy, maximal % potentiation relative to dopamine maximal response)
T1 construct: host or cells: LMtk (Ltk-) mouse fibroblast cells
T1 sequence (P21728 whole entry, species assumed): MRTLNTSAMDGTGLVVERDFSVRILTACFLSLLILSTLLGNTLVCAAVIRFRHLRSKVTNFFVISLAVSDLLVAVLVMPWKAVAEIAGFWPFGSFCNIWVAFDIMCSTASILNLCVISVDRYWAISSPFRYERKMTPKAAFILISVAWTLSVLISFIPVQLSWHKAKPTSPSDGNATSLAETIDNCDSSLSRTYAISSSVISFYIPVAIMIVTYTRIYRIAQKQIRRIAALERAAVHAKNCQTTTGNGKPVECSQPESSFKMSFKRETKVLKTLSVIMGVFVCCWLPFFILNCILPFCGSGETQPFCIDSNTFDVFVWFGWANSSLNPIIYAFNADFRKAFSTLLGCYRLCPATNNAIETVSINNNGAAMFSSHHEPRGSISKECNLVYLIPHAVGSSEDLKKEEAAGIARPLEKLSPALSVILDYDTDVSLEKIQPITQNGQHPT
Source text: Assays have been designed to measure the effects of compounds in accordance with the present invention in the absence of dopamine (“activation assay”) and in the presence of dopamine (“potentiation assay”).
The potentiation assay measures the ability of compounds to increase the levels of cAMP produced by a low-threshold concentration of dopamine. The concentration of dopamine used ([EC20]) is designed to produce 20% stimulation compared to the maximal response (100%) seen with increasing the concentration of dopamine. To measure this potentiation increasing concentrations of the compound with the [EC20] of dopamine are incubated and the potentiation is measured as increases in cAMP production and concentration of compound which produces 50% of the potentiation of the cAMP levels is measured.
• a. METHODS D1 Cell Culture Cells were cultured at 37° C. in a humidified atmosphere of 5% CO2. Cells were grown in DMEM-F12+GlutaMAX™-I medium (GIBCO®, Invitrogen, Merelbeke, Belgium) containing 10% fetal bovine serum (BioWhittaker®, Lonza, Verviers, Belgium), 400 μg/mL Geneticin (GIBCO®), 100 IU/mL Penicillin and 100 IU/mL Streptomycin (Pen-Strep solution, BioWhittaker®). […] Using homogenous time-resolved fluoresence technology, the assay is based on competition between native cAMP produced by cells and cAMP labelled with the dye d2. The tracer binding is determined by an anti-cAMP antibody labeled with cryptate. The effects of the compound alone (agonism) was determined by performing the assay in the absence of dopamine, whilst the effect of the compound as a positive allosteric modulator (PAM) was determined in the presence of an EC20 concentration of dopamine. Cells (20,000 per well) are incubated in 384 plates for 1 hour at room temperature in a final volume of 20 μL HBSS (Lonza, with calcium, magnesium and HEPES buffer 20 mM, pH 7.4) containing: isobutyl methylxanthine (Sigma, 0.1 mM final), varying concentrations of test compound (typically 10^−9.5M to 10^−4.5M) in the presence and absence of dopamine (1.1 nM final). The reaction is then terminated and the cells lysed by adding the d2 detection reagent in lysis buffer (10 microL) and the cryptate reagent in lysis buffer (10 microl) according to manufacturer's instructions. This is then incubated for a further 60 min at room temperature and changes in HTRF fluorescent emission ratio determined according to manufacturer's instructions using an Envision plate reader (Perkin Elmer, Zaventem, Belgium) with laser excitation. All incubations were performed in duplicate and results were compared to a concentration-effect curve to dopamine. (10^−11M to 10^−6M). • c. […]

[1] = molecular target: T2, human GABAA (α1β2γ2) channels (Homo sapiens, UniProt P14867+P18507+P47870); assay: Automated patch clamp studies on the GABAA receptor (IonFlux HT, CHO-K1 cells); assay type: cell-based; conditions: compound at 10 μM, GABA 15 μM as agonist, read-out: percentage of inhibition of the GABAA receptor
T2 construct: expressed in transfected cells; host or cells: CHO-K1 cells
T2 sequence (P14867 28-456): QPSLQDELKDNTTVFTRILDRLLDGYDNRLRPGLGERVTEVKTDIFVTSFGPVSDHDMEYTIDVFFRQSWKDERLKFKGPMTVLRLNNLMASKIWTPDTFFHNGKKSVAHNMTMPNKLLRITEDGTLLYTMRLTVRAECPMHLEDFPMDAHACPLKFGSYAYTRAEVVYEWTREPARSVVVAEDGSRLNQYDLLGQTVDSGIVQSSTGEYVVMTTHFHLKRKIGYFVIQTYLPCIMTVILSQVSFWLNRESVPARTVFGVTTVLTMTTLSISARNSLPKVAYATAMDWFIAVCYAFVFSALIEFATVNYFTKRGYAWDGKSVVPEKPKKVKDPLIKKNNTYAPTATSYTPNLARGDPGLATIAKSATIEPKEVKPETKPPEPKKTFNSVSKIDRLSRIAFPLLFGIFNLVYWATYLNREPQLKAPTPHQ
T2 sequence (P47870 25-512 limits assumed): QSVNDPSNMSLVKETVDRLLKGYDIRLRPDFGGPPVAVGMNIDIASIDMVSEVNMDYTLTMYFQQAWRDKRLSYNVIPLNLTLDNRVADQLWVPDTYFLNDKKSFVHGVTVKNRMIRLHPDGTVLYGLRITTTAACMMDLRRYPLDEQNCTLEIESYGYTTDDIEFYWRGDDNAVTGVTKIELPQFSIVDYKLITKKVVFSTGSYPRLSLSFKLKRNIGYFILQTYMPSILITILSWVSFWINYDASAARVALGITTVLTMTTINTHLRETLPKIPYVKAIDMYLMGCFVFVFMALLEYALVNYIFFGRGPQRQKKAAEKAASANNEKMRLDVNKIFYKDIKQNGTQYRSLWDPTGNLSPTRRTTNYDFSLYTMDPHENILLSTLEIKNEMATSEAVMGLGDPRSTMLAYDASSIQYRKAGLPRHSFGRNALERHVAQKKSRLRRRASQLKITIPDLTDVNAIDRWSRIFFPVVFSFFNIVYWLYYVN
T2 sequence (P18507 40-475): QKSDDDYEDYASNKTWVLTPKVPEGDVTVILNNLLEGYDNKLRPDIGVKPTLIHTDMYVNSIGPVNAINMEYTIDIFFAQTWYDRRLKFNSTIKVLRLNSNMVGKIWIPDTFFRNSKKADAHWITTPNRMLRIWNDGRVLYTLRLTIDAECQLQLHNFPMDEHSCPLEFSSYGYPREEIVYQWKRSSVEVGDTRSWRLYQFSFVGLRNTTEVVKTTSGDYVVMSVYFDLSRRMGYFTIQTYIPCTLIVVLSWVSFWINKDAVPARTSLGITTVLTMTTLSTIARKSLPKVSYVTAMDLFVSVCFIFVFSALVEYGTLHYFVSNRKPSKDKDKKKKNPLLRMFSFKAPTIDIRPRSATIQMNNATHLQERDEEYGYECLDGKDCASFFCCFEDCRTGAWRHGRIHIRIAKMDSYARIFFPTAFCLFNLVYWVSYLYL

CYP3A4 = molecular target: T3, CYP3A4 (Homo sapiens, UniProt P08684); assay: In vitro assessment of CYP3A4 inhibition potential using cryopreserved human microsomes (midazolam substrate); assay type: in vitro ADME; conditions: cryopreserved human microsomes (pooled donors), probe midazolam 2.5 μM, read-out: percentage of inhibition of CYP3A4
T3 construct: cryopreserved human microsomes (pooled donors) are divided on a 48 well collagen coated plate; from tissue; host or cells: cryopreserved human microsomes (pooled donors)
T3 sequence (P08684 whole entry): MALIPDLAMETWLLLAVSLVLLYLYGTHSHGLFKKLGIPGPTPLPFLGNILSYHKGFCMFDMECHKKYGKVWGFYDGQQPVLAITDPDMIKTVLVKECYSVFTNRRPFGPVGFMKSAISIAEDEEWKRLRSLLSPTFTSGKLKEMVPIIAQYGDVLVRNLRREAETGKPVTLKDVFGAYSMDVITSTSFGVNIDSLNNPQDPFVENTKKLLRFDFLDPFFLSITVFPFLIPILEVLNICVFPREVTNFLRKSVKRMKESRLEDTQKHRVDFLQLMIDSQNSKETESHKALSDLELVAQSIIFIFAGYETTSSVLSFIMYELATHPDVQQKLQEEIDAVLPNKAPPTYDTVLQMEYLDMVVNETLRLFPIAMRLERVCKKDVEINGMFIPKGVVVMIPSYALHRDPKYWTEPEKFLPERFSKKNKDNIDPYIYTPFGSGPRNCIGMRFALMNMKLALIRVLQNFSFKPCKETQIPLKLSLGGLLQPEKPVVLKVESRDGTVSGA
Experimental: The objective of the human microsome assay is to characterize the inhibition potential of Compound of formula (I) by measuring the CYP3A4 activities after its co-incubation with midazolam, a specific CYP3A4 substrate.
To this aim, cryopreserved human microsomes (pooled donors) are divided on a 48 well collagen coated plate so that the final concentration is 0.25 mg/ml. The UCB compound is then added in the wells at 1 μM and 20 μM concentration in duplicate. After 30 minutes incubation, midazolam is added at 2.5 μM concentration. After 15 minutes, an aliquot is removed and placed into an equal volume of methanol containing internal standard. The samples are centrifuged at 2500 rpm at 4° C. for 20 min. An aliquot of supernatant is diluted with deionised water and levels of 1-hydroxymidazolam is quantified using generic LC MS/MS methods. The concentrations are compared to those obtained after midazolam incubation at the same concentration but without UCB compound pre-incubation. The results are expressed as % of inhibition. […] Azamulin Assay Cryopreserved human hepatocytes (pool of 20 donors, BSU batch from Celsis/IVT/Bioreclamation) were thawed accordingly the provider's information. Viability (trypan blue exclusion) was higher than 75%. […]

[2] = Intrinsic clearance in cryopreserved human hepatocyte suspension (Azamulin Assay); assay type: in vitro ADME
Experimental: The clearance is generally evaluated by using hepatocyte incubations and scaling calculations, assuming the main elimination pathway is metabolism, according to protocols described herein. The intrinsic clearance evaluated from hepatocytes is expressed in μl/min/10^6 cells.
To this aim, cryopreserved human microsomes (pooled donors) are divided on a 48 well collagen coated plate so that the final concentration is 0.25 mg/ml. The UCB compound is then added in the wells at 1 μM and 20 μM concentration in duplicate. After 30 minutes incubation, midazolam is added at 2.5 μM concentration. After 15 minutes, an aliquot is removed and placed into an equal volume of methanol containing internal standard. The samples are centrifuged at 2500 rpm at 4° C. for 20 min. An aliquot of supernatant is diluted with deionised water and levels of 1-hydroxymidazolam is quantified using generic LC MS/MS methods. The concentrations are compared to those obtained after midazolam incubation at the same concentration but without UCB compound pre-incubation. The results are expressed as % of inhibition. […]
Samples are analyzed by LC-MS-MS bioanalytical method to measure the concentration of UCB compound. The concentration versus time profile is fitted to determine the intrinsic clearance (Clint) expressed as μl/min/10^6 cells.

Row | EC50 (dopamine D1 receptor) | Emax (dopamine D1 receptor) | inhibition at 10 µM [1] | inhibition at 15 min, 1 μM (CYP3A4; compound at 1 μM) | inhibition at 15 min, 20 μM (CYP3A4; compound at 20 μM) | hepatocyte CLint at 0.5 μM [2] | SMILES
1 | ~0.126 µM | ~64% | ~13% | ~20% | ~28% | ~8.8 µL/min/1e6 cells | C[C@H]1c2cccc([C@](C)(O)CF)c2CCN1C(=O)Cc1c(Cl)cnc(CO)c1Cl [compound of formula (Ia), 2-[3,5-dichloro-2-(hydroxymethyl)-4-pyridyl]-1-[(1S)-5-[(1S)-2-fluoro-1-hydroxy-1-methyl-ethyl]-1-methyl-3,4-dihydro-1H-isoquinolin-2-yl]ethanone]
2 | ~0.2 µM | ~61% | ~20% | – | – | ~9.2 µL/min/1e6 cells | CC1c2cccc(C(C)(O)CF)c2CCN1C(=O)Cc1c(Cl)cnc(CO)c1Cl (stereo not shown) [(Ib)]
